Target: T1, GIRK1-S65Y with GIRK2 (UniProt P48542+P48549, S65Y)
T1 construct: expressed in transfected cells; host or cells: HEK293 cells
T1 sequence (P48549 1-501 S65Y): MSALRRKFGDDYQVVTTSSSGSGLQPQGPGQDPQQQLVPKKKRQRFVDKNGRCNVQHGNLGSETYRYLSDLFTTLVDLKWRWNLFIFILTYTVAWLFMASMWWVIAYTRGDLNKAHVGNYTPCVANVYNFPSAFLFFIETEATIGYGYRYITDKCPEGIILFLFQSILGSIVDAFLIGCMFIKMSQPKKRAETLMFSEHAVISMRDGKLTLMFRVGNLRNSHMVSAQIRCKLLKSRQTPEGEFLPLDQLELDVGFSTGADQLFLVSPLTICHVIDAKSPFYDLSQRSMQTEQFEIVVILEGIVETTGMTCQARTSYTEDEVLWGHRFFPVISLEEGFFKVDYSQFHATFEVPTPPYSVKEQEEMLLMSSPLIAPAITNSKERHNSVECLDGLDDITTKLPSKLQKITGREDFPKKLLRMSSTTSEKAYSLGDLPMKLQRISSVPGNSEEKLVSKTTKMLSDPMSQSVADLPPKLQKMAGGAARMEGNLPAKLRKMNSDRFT
T1 sequence (P48542 1-425): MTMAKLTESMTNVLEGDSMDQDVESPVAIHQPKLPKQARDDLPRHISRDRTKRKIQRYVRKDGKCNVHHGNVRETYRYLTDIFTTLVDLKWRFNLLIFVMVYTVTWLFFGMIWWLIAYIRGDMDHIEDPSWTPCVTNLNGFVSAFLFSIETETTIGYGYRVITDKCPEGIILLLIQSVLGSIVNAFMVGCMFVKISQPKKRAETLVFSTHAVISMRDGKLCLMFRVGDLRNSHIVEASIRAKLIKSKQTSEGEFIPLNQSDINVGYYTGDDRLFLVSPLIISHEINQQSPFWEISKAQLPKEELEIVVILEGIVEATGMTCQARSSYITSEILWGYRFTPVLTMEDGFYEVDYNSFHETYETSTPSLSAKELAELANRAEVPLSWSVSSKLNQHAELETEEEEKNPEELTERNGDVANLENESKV
Assay: 5-ptaseOCRL current inhibition, GIRK1/2 channels containing GIRK1-S65Y subunits
Format: cell-based, human GIRK1, mouse GIRK2
Settings: 10 μM GAT1508
Description: To identify changes in specific channel residue interactions with PIP2 upon ligand binding, the inventors carried out Principal Component Analysis (PCA) in the presence and absence of ML297 and GAT1508. The PCA analysis implicated changes in the slide (or interfacial) helix interactions with PIP2 upon ligand binding. Polar interactions could be formed between GIRK2^FD(Y76) and GIRK4^FD(Y71) with the P(4,5) of PIP2 when ML297 was bound to the same subunit (FIG. 39 top, FIG. 40). In contrast, when GAT1508 was bound this interaction was retained by GIRK2^FD but not GIRK4^FD (FIG. 39 bottom, FIG. 40). The corresponding GIRK1(S65) residue (FIG. 41, highlighted with vertical rectangle) could be serving the same role in stabilizing the phosphoinositol headgroup for interactions with non-ligand binding subunits. As polar residues, both Ser and Tyr could form H-bond interactions with PIP2. […]
Patch-clamp recording: Whole-cell currents were recorded with an Axopatch 200B amplifier (Molecular Devices) controlled via a USB-interface (National Instruments) using WinWCP software (University of Strathclyde). […] The barium-sensitive component of the current, observed when cells were perfused with the high-K^+ buffer, was analyzed and was determined by perfusing 5 mM BaCl2 in the high-K^+ buffer at the end of each experiment. […]

- protection of current from 5-ptaseOCRL (in words): no additional effect
Compound: Cc1cc(NC(=O)Nc2ccc(Br)s2)n(-c2ccccc2)n1 [GAT1508, 1-(5-bromothiophen-2-yl)-3-(3-methyl-1-phenyl-1H-pyrazol-5-yl)urea]

— US12351574B2, “Selective ligands for modulation of GIRK channels” (Northeastern University, priority 2018, dated 2025)
